Experimental data reported in PMC3199943, “Screening the MayBridge Rule of 3 Fragment Library for Compounds That Interact with the Trypanosoma brucei myo-Inositol-3-Phosphate Synthase and/or Show Trypanocidal Activity” (Molecular Biology International, 2011).
Like-named read-outs stand apart in the source and are kept apart here.

Assays:
A549 cells = assay: Cytotoxicity against A549 cells, Alamar Blue; format: cell-based; details: Supplementary Table 1, compound 0.5 mM, percentage of controls (n=1); for viability at 500 µM: Homo sapiens, A549, 65 h
Procedure, shortened: (§1)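 Alamar Blue read-out after a 5 h dye incubation that followed ~65 h compound exposure. Cells: HeLa or A549, 2 × 10^4/well, DMEM + 10% FCS + 2 mM L-Glutamine.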

HeLa cells = assay: cells; details: for viability at 500 µM: Homo sapiens, HeLa, 65 h; for HeLa Cells Alamar Blue: Supplementary Table 1
Procedure, shortened: as §1

TbINO1 = target: T1, TbINO1 (Trypanosoma brucei brucei, UniProt Q5QQ46); assay: biochemical; format: binding
T1 sequence (Q5QQ46 1-528): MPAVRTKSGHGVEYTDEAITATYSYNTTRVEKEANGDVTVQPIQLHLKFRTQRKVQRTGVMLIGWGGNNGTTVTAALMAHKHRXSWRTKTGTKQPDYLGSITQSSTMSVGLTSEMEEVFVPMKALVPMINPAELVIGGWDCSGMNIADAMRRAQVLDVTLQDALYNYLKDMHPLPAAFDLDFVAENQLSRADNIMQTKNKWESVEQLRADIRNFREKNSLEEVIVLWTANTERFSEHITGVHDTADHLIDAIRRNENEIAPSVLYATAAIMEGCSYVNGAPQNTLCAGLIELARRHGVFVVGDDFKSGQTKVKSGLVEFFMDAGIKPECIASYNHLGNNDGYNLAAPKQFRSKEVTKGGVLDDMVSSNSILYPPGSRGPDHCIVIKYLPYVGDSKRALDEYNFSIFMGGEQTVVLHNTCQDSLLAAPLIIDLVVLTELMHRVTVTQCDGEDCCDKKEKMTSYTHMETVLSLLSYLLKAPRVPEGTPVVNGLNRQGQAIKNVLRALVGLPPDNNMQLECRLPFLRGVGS

[1] = read-out: HeLa Cells Alamar Blue, Supplementary Table 1, compound 0.5 mM, percentage of controls, mean ± SD (n=3) or SE (n=2)
[2] = read-out: Tb Ino1 Tm Shift [˚C]
[3] = read-out: HeLa Cells Alamar Blue
[4] = Supplementary Table 1, compound 1mM, mean ± SD from Boltzman curve fitting, read-out: Tb Ino1 Tm Shift [˚C]
[5] = read-out: HeLa Cells Alamar Blue (% survival)
[6] = compound 0.5 mM, percentage of controls, mean ± SD (n=3) or SE (n=2)
[7] = Supplementary Table 1, compound 1mM, mean ± SD from Boltzman curve fitting

Compound	viability at 500 µM (A549 cells)	ΔTm at 1000 µM (TbINO1; [2])	viability at 500 µM (HeLa cells; [3])	also measured
Oc1noc2ccccc12 [compound 112, benzo[d]isoxazol‐3‐ol]	76.7%	0.23 ± 0.06 °C		viability at 500 µM (HeLa cells; [1]): 83 ± 11.2%
Cc1cccc(CN)c1C [compound 113, 2,3‐dimethylbenzylamine]	83.6%	0.12 ± 0.07 °C	89.3 ± 15.9%	
N#Cc1c(N)cccc1F [compound 115, 2‐amino‐6‐fluorobenzonitrile]	77.4%	0.17 ± 0.07 °C	71.3 ± 0.6%	
Cc1ccc2c(c1)OCO2 [compound 116, 5‐methyl‐1,3‐benzodioxole]	109%		82.7 ± 15.6%	ΔTm at 1000 µM (TbINO1; [4]): 0.38 ± 0.06 °C
CC(=O)c1nccnc1C [compound 117, 1‐(3‐methylpyrazin‐2‐yl)ethan‐1‐one]	88.3%	0.4 ± 0.06 °C	87.6 ± 11.3%	
c1cnc2c(c1)OCCN2 [compound 118, 3,4‐dihydro‐2H‐pyrido[3,2‐b][1,4]oxazine]	92.3%	0.46 ± 0.06 °C	84.1 ± 18%	
N#Cc1ccc(O)cc1F [compound 120, 2‐fluoro‐4‐hydroxybenzonitrile]	72.6%	0.41 ± 0.06 °C	18.6 ± 10.7%	
Nc1ccc2c(c1)OCO2 [compound 121, 1,3‐benzodioxol‐5‐amine]	110%	0.72 ± 0.07 °C	76.7 ± 16%	
NC(=S)c1ccccc1 [compound 123, benzene‐1‐carbothioamide]	87.9%	0.42 ± 0.06 °C	89 ± 10.9%	
Oc1ccc2c(c1)OCO2 [compound 124, 1,3-benzodioxol-5-ol]	53.6%		39.7 ± 12.5%	viability at 500 µM (HeLa cells; [5]): 39.7 ± 12.5%; ΔTm at 1000 µM (TbINO1; compound 1 mM, mean ± SD (n = 3), read-out: TbIno1 Tm shift [°C]): 2.1 ± 0.04 °C
Cc1csc(CC#N)n1 [compound 126, 2-(4-methyl-1,3-thiazol-2-yl)acetonitrile]	98.4%		69.7 ± 10.3%	viability at 500 µM (HeLa cells; [5]): 69.7 ± 10.3%; ΔTm at 1000 µM (TbINO1; read-out: TbIno1 Tm shift [°C]): 2.1 ± 0.09 °C
Cc1nn(C)c(C)c1CN [compound 128, (1,3,5‐trimethyl‐1H‐pyrazol‐4‐yl)methylamine]				A549 Cells Alamar Blue (A549 cells): 87.7 percentage of controls; HeLa Cells Alamar Blue (HeLa cells; [6]): 80.3 ± 7 percentage of controls; Tb Ino1 Tm Shift [˚C] (TbINO1; [7]): 0.22 ± 0.06 °C
O=C(O)c1ccccc1F [compound 129, 2‐fluorobenzoic acid]	126%	0.13 ± 0.07 °C		viability at 500 µM (HeLa cells; [1]): 78.6 ± 14.2%
Cc1cc(C(=O)O)c(C)o1 [compound 130, 2,5‐dimethyl‐3‐furoic acid]	121%	0.62 ± 0.08 °C	84.7 ± 0.7%	
O=C(O)CCc1ccco1 [compound 131, 3‐(2‐furyl)propanoic acid]	98.1%	1.22 ± 0.09 °C	69.8 ± 21.4%	
COC(=O)c1ccoc1C [compound 132, methyl 2-methyl-3-furoate]	100%		71.3 ± 11.3%	viability at 500 µM (HeLa cells; [5]): 71.3 ± 11.3%; ΔTm at 1000 µM (TbINO1; read-out: TbIno1 Tm shift [°C]): 1.64 ± 0.09 °C
CC(=O)c1sccc1N [compound 133, 1‐(3‐amino‐2‐thienyl)ethan‐1‐one]	100%	1.24 ± 0.07 °C	83 ± 12.2%	
Cc1csc(C(N)=O)c1 [compound 134, 4‐methylthiophene‐2‐carboxamide]	123%	0.61 ± 0.07 °C	83.1 ± 5.6%	
Cc1nc(C(N)=S)c[nH]1 [compound 135, 2-methyl-1H-imidazole-4-carbothioamide]	102%		90.3 ± 10.9%	viability at 500 µM (HeLa cells; [5]): 90.3 ± 10.9%; ΔTm at 1000 µM (TbINO1; read-out: TbIno1 Tm shift [°C]): 1.74 ± 0.09 °C

Compound	viability at 500 µM (A549 cells)	ΔTm at 1000 µM (TbINO1; [2])	viability at 500 µM (HeLa cells; [3])	also measured
NCc1ccccc1Cl [compound 136, 2‐chlorobenzylamine]	90.4%	0.02 ± 0.07 °C	53.3 ± 12.2%	
COC(=O)c1cccs1 [compound 138, methyl thiophene‐2‐carboxylate]	121%	0.31 ± 0.05 °C	89.4 ± 9.3%	
Cc1csc(C(=O)O)c1 [compound 139, 4‐methylthiophene‐2‐carboxylic acid]	121%	0.08 ± 0.07 °C	70.9 ± 10.7%	
Cc1cc(C(N)=S)no1 [compound 140, 5‐methylisoxazole‐3‐carbothioamide]	110%	0.2 ± 0.07 °C	89.2 ± 6.5%	
CC(C)(N)CN1CCCC1 [compound 142, 2‐methyl‐1‐(1‐pyrrolidinyl)‐2‐propanamine]				A549 Cells Alamar Blue (A549 cells): 96.3 percentage of controls; HeLa Cells Alamar Blue (HeLa cells; [6]): 89.9 ± 8.9 percentage of controls; Tb Ino1 Tm Shift [˚C] (TbINO1; [7]): 0.13 ± 0.07 °C
OCc1ccccc1Cl [compound 143, (2‐chlorophenyl)methanol]	109%	0.46 ± 0.05 °C	93.3 ± 6.6%	
CNc1ccc(F)cc1F [compound 144, N1‐methyl‐2,4‐difluoroaniline]	110%	1.09 ± 0.06 °C	79.3 ± 10.3%	
Cc1ncsc1C(=O)O [compound 145, 4‐Methyl‐thiazole‐5‐carboxylic acid]	114%	0.01 ± 0.07 °C	90.6 ± 16.1%	
Cc1nc(C(=O)O)cs1 [compound 146, 2‐methyl‐1,3‐thiazole‐4‐carboxylic acid]	109%	0.1 ± 0.08 °C	87 ± 6.4%	
Cc1nc(C)c(CO)s1 [compound 147, (2,4‐dimethyl‐1,3‐thiazol‐5‐yl)methanol]	118%	0.14 ± 0.08 °C	93.6 ± 4.3%	
NC(=S)c1ccsc1 [compound 148, thiophene‐3‐carbothioamide]	99.6%	0.78 ± 0.08 °C	92.3 ± 7%	
c1cncc(-n2cccc2)c1 [compound 151, 3‐(1H‐pyrrol‐1‐yl)pyridine]	90.1%	0.43 ± 0.06 °C	90.3 ± 6%	
Nc1cc2ccccc2cn1 [compound 153, isoquinolin‐3‐amine]	118%	0.27 ± 0.06 °C	88.5 ± 16.5%	
CC(=O)c1ccc(C#N)cc1 [compound 155, 4‐acetylbenzonitrile]	131%		87.3 ± 16.6%	ΔTm at 1000 µM (TbINO1; [4]): 0.19 ± 0.06 °C
c1ccc(-c2cnco2)cc1 [compound 156, 5‐phenyl‐1,3‐oxazole]	104%	0.95 ± 0.06 °C	77.5 ± 18.3%	
CC1Cc2ccccc2C1=O (stereo not shown) [compound 157, 2‐methylindan‐1‐one]	126%	0.14 ± 0.07 °C	94.7 ± 3.5%	
NC(=S)N1CCOCC1 [compound 159, morpholine‐4‐carbothioamide]	109%	0.21 ± 0.05 °C	93.8 ± 9.3%	
Oc1ccc(F)c(Cl)c1 [compound 160, 3‐chloro‐4‐fluorophenol]	77.4%	0.02 ± 0.05 °C	94.9 ± 15.3%	
